Consider two molecules from paper PMC4742234, “Screening of Drug Metabolizing Enzymes for the Ginsenoside Compound K In Vitro: An Efficient Anti-Cancer Substance Originating from Panax Ginseng” (PLoS ONE, 2016).

In one data set the test system is CYP3A4. The arrangement: method as in Hao et al.(2008). To be noted: baculosomes, ref Hao et al.(2008); cited from earlier work.
Substrate in data set [1]: CC(C)=CCC[C@](C)(OC1O[C@H](CO)[C@@H](O)[C@H](O)[C@H]1O)[C@H]1CC[C@]2(C)[C@@H]1[C@H](O)C[C@@H]1[C@@]3(C)CC[C@H](O)C(C)(C)[C@@H]3CC[C@]12C
The data set can be described thus: Kinetic analysis of CK metabolism by recombinant CYP2C9. In kind it is in vitro ADME, human. To be noted: other: recombinant CYP2C9 10 pmol, CK 10–100 μM; pH 7.4; 37.0 °C. The protocol:
The method was conducted according to our previous study with some modifications. The CYP isoform-specific probe reactions used were phenacetin O-deethylation (for CYP1A2), coumarin 7-hydroxylation (for CYP2A6), tolbutamide 4-hydroxylation (for CYP2C9), metoprolol α-hydroxylation (for CYP2D6), chlorzoxazone 6-hydroxylation (for CYP2E1),S-Mephenytoin 4-hydroxylation (for CYP2C19), and midazolam 1-hydroxylation (for CYP3A4). The kinetic study of CK was conducted with HLMs. A 0.2 mL incubation mixture that consisted of CK (as a substrate), the HLMs (0.5 mg/mL) or CYP isoforms (10 pmol), and 0.1 M sodium phosphate buffer (pH 7.4) was pre-warmed for 5 min at 37°C. The reaction was initiated by the addition of 1 mg/mL triphosphopyridine nucleotide (NADPH). […]
The kinetic parameters for the metabolism of CK were determined by incubating increasing concentrations of CK (10–100 μM) at 37°C with the HLMs and NADPH under the incubation conditions as described in detail previously. The equation of CK reaction velocity (V) in the HLMs or CYP isoforms is expressed as V = (C0–Ct)/T/Cp, where C0and Ct are the initial and final concentrations of CK in the incubation solution, respectively, T is the incubation time (min), and Cp is the protein concentration (mg/mL or nmol). All values were expressed as the mean±standard deviation (SD). […]

One may read the Km as the substrate concentration at which the rate is half of its maximum.

Turning to `CC(C)=CCC[C@](C)(O)[C@H]1CC[C@]2(C)[C@@H]1[C@H](O)C[C@@H]1[C@@]3(C)CC[C@H](O[C@@H]4O[C@H](CO)[C@@H](O)[C@H](O)[C@H]4O)C(C)(C)[C@@H]3CC[C@]12C` [Rh2, reference compound], in the data set on CYP3A4, the CYP3A4 inhibition entry was “moderate”.

B1: recombinant CYP2C9 (Homo sapiens) (protein)
chain: MDSLVVLVLCLSCLLLLSLWRQSSGRGKLPPGPTPLPVIGNILQIGIKDISKSLTNLSKVYGPVFTLYFGLKPIVVLHGYEAVKEALIDLGEEFSGRGIFPLAERANRGFGIVFSNGKKWKEIRRFSLMTLRNFGMGKRSIEDRVQEEARCLVEELRKTKASPCDPTFILGCAPCNVICSIIFHKRFDYKDQQFLNLMEKLNENIKILSSPWIQICNNFSPIIDYFPGTHNKLLKNVAFMKSYILEKVKEHQESMDMNNPQDFIDCFLMKMEKEKHNQPSEFTIESLENTAVDLFGAGTETTSTTLRYALLLLLKHPEVTAKVQEEIERVIGRNRSPCMQDRSHMPYTDAVVHEVQRYIDLLPTSLPHAVTCDIKFRNYLIPKGTTILISLTSVLHDNKEFPNPEMFDPHHFLDEGGNFKKSKYFMPFSAGKRICVGEALAGMELFLFLTSILQNFNLKSLVDPKNLDTTPVVNGFASVPPFYQLCFIPV
notes: purchased Cypex Ltd. (U.K.)
On to B1, for which, in data set [1], the Km is 34.63 ± 10.48 µM.
